Consider 20 compounds from PubChem BioAssay (NCI).

By GI50 is commonly meant the concentration at which growth is held to half of that of the control. A word on the TGI: it is the concentration at which net growth stops. A low value points to more potent growth arrest.

“And” between values parts separate entries of the source, which are not always exact repeats. Equal values may be shown once.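 Growth conditions: 96-well plates. Treatment: test compound, 48 hours, 5 concentrations. Analysis: linear interpolation between bracketing concentrations; unreached endpoints set to highest concentration. At the GI50, growth is halved. Definition used: TGI = concentration required for complete inhibition of growth.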

One test has as its system UO-31 renal. The test can be described thus: DTP human tumour cell line panel, 48 h.
As to `C[C@]12CCc3sc(Nc4ccc(OC(F)(F)F)cc4)nc3C1=CC[C@@H]1[C@@H]2CC[C@]2(C)C(=O)CC[C@@H]12`, the GI50 is 2.06 µM and the TGI turned out to be 4.73 µM.
The corresponding values for `CCN1C(=O)c2ccc3c4c(ccc(c24)C1=O)C(=O)N(CCCNCc1ccccc1OC)C3=O` are 1.39 µM and 3.58 µM.
The corresponding values for `O=C(/C=C/c1ccccc1)Nc1ncc(Cc2ccccc2Cl)s1` are 0.614 µM and greater than 100 µM.
The corresponding values for `CN(c1ccc(NC(=O)Nc2c(Cl)cccc2Cl)cc1)c1ccnc(Nc2cccc(CS(C)(=O)=O)c2)n1` are 4.28 µM and 13.3 µM.
For `CCCCCCCCCCCCCCCCCCOC[C@H](COP(=O)(O)O[C@H]1[C@H](O)[C@@H](O)[C@H](O)C[C@H]1O)OC`, the GI50 is greater than 100 µM; the concentration for total growth inhibition (TGI) was > 100 µM and 22.1 µM.
For `CN(C)C/C=C/C(=O)Nc1ccc(C(=O)N[C@@]2(C)CCC[C@@H](Nc3ncc(Cl)c(-c4c[nH]c5ccccc45)n3)C2)nc1`, the GI50 is 0.0557 µM and the total growth inhibition concentration (TGI) came to 0.718 µM.
For the compound `Nc1n[nH]c2cccc(C#Cc3cccc(NC(=O)c4cccc(C(F)(F)F)c4)c3)c12`, the GI50 was 2.29 µM and the TGI was 9.45 µM.
Regarding `CCCCCCCCn1ccc2cc(NC(=O)Cn3cc(CN4CCCCCC4)nn3)ccc21`, the GI50 is 1.48 µM and the TGI came to 2.81 µM.
With `COCCOC(=O)C1=C(O)c2ccccc2S(=O)(=O)N1C`, the TGI is greater than 100 µM.
Still for that read-out and setting: to `CNC(=O)OCc1nc(SSC(C)(C)C)n(C)c1COC(=O)NC` belongs 20.3 µM.
On the same count and under the same terms, to `CC(C)C(O)(C(C)C)C(C)C` belongs greater than 100 µM.
`CC(C)CNc1nc(-c2ccccc2Cl)nc2ccccc12`: the GI50 was 17.1 µM and the TGI was found to be 49.2 µM.
For `CN(C)CCOc1ccc([N+](=O)[O-])c2cccnc12`, the TGI was greater than 100 µM.
With `O=C(O)CSCCc1ccccc1`, the TGI is greater than 100 µM.
The compound `CC(C)(C)c1cc([N+](=O)[O-])cc([N+](=O)[O-])c1O` registered a TGI greater than 10 µM.
Consider `COc1ccc2c(c1)C(=O)/C(=C/c1cccc(OCC(=O)c3ccccc3)c1)O2`, for which the GI50 is 1.59 µM and the TGI came to 3.09 µM.
Compound `Cc1ccc(S(=O)(=O)N=Nc2c(O)[nH]c3cc(O)c(C(=O)O)cc23)cc1` showed a TGI greater than 100 µM.
`O=C(O)CCCc1ccc2ccc3ccccc3c2c1` yielded a TGI greater than 100 µM.
Compound `CNC(=O)OCc1c(COC(=O)NC)c(-c2ccc(-c3ccccc3)cc2)n(C)c1C` came in with a TGI of 3.1 µM.
For the compound `CSC(SC)(C(=O)O)c1cc(-c2c(Cl)cccc2Cl)no1`, the TGI is 92.2 µM.

The test system of a further test is SW-620 colon. The test can be described thus: DTP human tumour cell line panel, 48 h.
On to `C[C@]12CCc3sc(Nc4ccc(OC(F)(F)F)cc4)nc3C1=CC[C@@H]1[C@@H]2CC[C@]2(C)C(=O)CC[C@@H]12`, for which the GI50 was 2.21 µM and the TGI came out at 5 µM.
On the same counts, the results for `CCN1C(=O)c2ccc3c4c(ccc(c24)C1=O)C(=O)N(CCCNCc1ccccc1OC)C3=O` are 0.362 µM and 1.77 µM.
On the same counts, the results for `O=C(/C=C/c1ccccc1)Nc1ncc(Cc2ccccc2Cl)s1` are 0.413 µM and greater than 100 µM.
The corresponding values for `CN(c1ccc(NC(=O)Nc2c(Cl)cccc2Cl)cc1)c1ccnc(Nc2cccc(CS(C)(=O)=O)c2)n1` are 1.62 µM and greater than 16.8 µM.
`CCCCCCCCCCCCCCCCCCOC[C@H](COP(=O)(O)O[C@H]1[C@H](O)[C@@H](O)[C@H](O)C[C@H]1O)OC`: the TGI is > 100 µM and 39.3 µM.
Consider `CN(C)C/C=C/C(=O)Nc1ccc(C(=O)N[C@@]2(C)CCC[C@@H](Nc3ncc(Cl)c(-c4c[nH]c5ccccc45)n3)C2)nc1`, for which the GI50 was less than 0.0106 µM and the TGI was 0.36 µM.
The corresponding values for `Nc1n[nH]c2cccc(C#Cc3cccc(NC(=O)c4cccc(C(F)(F)F)c4)c3)c12` are 3.22 µM and 19.5 µM.
The corresponding values for `CCCCCCCCn1ccc2cc(NC(=O)Cn3cc(CN4CCCCCC4)nn3)ccc21` are 1.73 µM and 3.33 µM.
Compound `COCCOC(=O)C1=C(O)c2ccccc2S(=O)(=O)N1C` returned a TGI greater than 100 µM.
In the case of `CNC(=O)OCc1nc(SSC(C)(C)C)n(C)c1COC(=O)NC`, the TGI was 3.67 µM.
Same read-out and setting: to `CN(C)CCOc1ccc([N+](=O)[O-])c2cccnc12` belongs greater than 100 µM.
Consider `O=C(O)CSCCc1ccccc1`, for which the TGI is greater than 100 µM.
With `CC(C)(C)c1cc([N+](=O)[O-])cc([N+](=O)[O-])c1O`, the TGI is greater than 10 µM.
`COc1ccc2c(c1)C(=O)/C(=C/c1cccc(OCC(=O)c3ccccc3)c1)O2`: the GI50 was 1.77 µM and the TGI stood at 3.43 µM.
The compound `Cc1ccc(S(=O)(=O)N=Nc2c(O)[nH]c3cc(O)c(C(=O)O)cc23)cc1` had a TGI greater than 100 µM.
Regarding `CNC(=O)OCc1c(COC(=O)NC)c(-c2ccc(-c3ccccc3)cc2)n(C)c1C`, the TGI is 28.3 µM.
Same read-out and setting: for `CSC(SC)(C(=O)O)c1cc(-c2c(Cl)cccc2Cl)no1` the value was greater than 100 µM.

The subject of another test is RPMI-8226 leukemia. The test can be described thus: DTP human tumour cell line panel, 48 h.
As for `C[C@]12CCc3sc(Nc4ccc(OC(F)(F)F)cc4)nc3C1=CC[C@@H]1[C@@H]2CC[C@]2(C)C(=O)CC[C@@H]12`, the GI50 was 1.02 µM and the total growth inhibition concentration (TGI) is 3.77 µM.
The corresponding values for `CCN1C(=O)c2ccc3c4c(ccc(c24)C1=O)C(=O)N(CCCNCc1ccccc1OC)C3=O` are 1.64 µM and 5.53 µM.
As for `O=C(/C=C/c1ccccc1)Nc1ncc(Cc2ccccc2Cl)s1`, the GI50 is 0.335 µM.
Regarding `CN(c1ccc(NC(=O)Nc2c(Cl)cccc2Cl)cc1)c1ccnc(Nc2cccc(CS(C)(=O)=O)c2)n1`, the GI50 is 3.68 µM and the TGI was greater than 22.7 µM.
As to `CCCCCCCCCCCCCCCCCCOC[C@H](COP(=O)(O)O[C@H]1[C@H](O)[C@@H](O)[C@H](O)C[C@H]1O)OC`, the total growth inhibition concentration (TGI) is 79.7 µM and 30.7 µM.
As for `CN(C)C/C=C/C(=O)Nc1ccc(C(=O)N[C@@]2(C)CCC[C@@H](Nc3ncc(Cl)c(-c4c[nH]c5ccccc45)n3)C2)nc1`, the concentration for 50% growth inhibition (GI50) was less than 0.01 µM and the TGI came to 0.0244 µM.
On the same counts, the results for `Nc1n[nH]c2cccc(C#Cc3cccc(NC(=O)c4cccc(C(F)(F)F)c4)c3)c12` are 3.44 µM and 21.5 µM.
Take `CCCCCCCCn1ccc2cc(NC(=O)Cn3cc(CN4CCCCCC4)nn3)ccc21`: the GI50 is 1.94 µM and the TGI was 4.31 µM.
